Patent publication US20260242416A1, “ANTIMICROBIAL PEPTIDES” (priority 2023, published 2026)
In brackets after ≈: the same amount, converted by molar mass. Where a SMILES comes first, the peptide text is derived from it.

Tests used:
E. coli ATCC 25922 = type: cell-based, Escherichia coli; conditions: ATCC 25922
Method in brief: (§1)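 MIC taken as lowest peptide level showing no visible growth after 20-24 h at 37° C. Twofold series 128-0.5 μg/mL in Mueller-Hinton broth, polypropylene plates, final inoculum 2-8×10^5 cfu/mL, per CLSI with cationic-peptide adaptations.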

[1] = tested on: Salmonella enterica serovar Enteritidis (human clinical isolate); type: cell-based; conditions: serovar Enteritidis (human clinical isolate)
Method in brief: as §1

S. aureus ATCC 29213 = type: cell-based, Staphylococcus aureus; conditions: ATCC 29213
Method in brief: as §1

[2] = tested on: E. coli ATCC 25922, Salmonella Enteritidis, S. aureus ATCC 29213; assay: Broth microdilution, panel result (at least one / all strains), Example 2; type: cell-based; design: key to inhibitory activity (asterisk): *Indicates inhibitory activity; conditions: for inhibitory activity (asterisk): Table 14, against at least one of E. coli ATCC 25922, Salmonella Enteritidis, S. aureus ATCC 29213
Method in brief: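 CLSI broth microdilution adapted for cationic peptides, in MHB with a final inoculum of 2-8×10^5 cfu/mL in polypropylene plates. Peptides were serially diluted from 128 down to 0.5 μg/mL and incubated 20-24 h at 37° C. MIC is the lowest concentration with no visible growth.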

MIC (ug/mL) E. coli (E. coli ATCC 25922) [µg/mL]	MIC (ug/mL) S. Enteritidis [1] [µg/mL]	MIC (ug/mL) S. aureus (S. aureus ATCC 29213) [µg/mL]	SMILES	inhibitory activity (asterisk) [2]	spectrum of antimicrobial activity ([2]; panel of E. coli, Salmonella Enteritidis, S. aureus, up to 128 μg/mL)
8 to 16	32 (≈ 22.4 µM)	> 128	CC[C@H](C)[C@H](NC(=O)CN)C(=O)N[C@@H](CC(C)C)C(=O)N[C@@H](CO)C(=O)NCC(=O)N[C@@H](CC(C)C)C(=O)N[C@@H](CC(C)C)C(=O)NCC(=O)N[C@@H](C)C(=O)NCC(=O)N[C@@H](CCCCN)C(=O)N[C@@H](CCCCN)C(=O)N[C@H](C(=O)N[C@H](C(=O)N[C@@H](CS)C(=O)O)C(C)C)[C@@H](C)CC [OdMa4, GILSGLLGAGKKIVC] (H-GILSGLLGAGKKIVC-OH; N-terminus and C-terminus assumed)	62.* GILSGLLGAGKKIVC	selective antimicrobial activity against the Gram-negative bacteria tested
8 to 16	64 to 128	8 to 16	CC[C@H](C)[C@H](NC(=O)CN)C(=O)N[C@@H](CC(C)C)C(=O)N[C@@H](CO)C(=O)NCC(=O)N[C@@H](CC(C)C)C(=O)N[C@@H](CC(C)C)C(=O)NCC(=O)N[C@@H](C)C(=O)NCC(=O)N[C@@H](CCCCN)C(=O)N[C@@H](CCCCN)C(=O)N[C@H](C(=O)N[C@H](C(=O)N[C@@H](CS)C(=O)NCC(=O)N[C@@H](CC(C)C)C(=O)N[C@@H](CO)C(=O)NCC(=O)N[C@@H](CC(C)C)C(=O)N[C@@H](CS)C(=O)O)C(C)C)[C@@H](C)CC [OdMa5] (H-GILSGLLGAGKKIVCGLSGLC-OH; N-terminus and C-terminus assumed)	1091.* GILSGLLGAGKKIVCGLSGLC	–
64 to 128	128 (≈ 89.6 µM)	> 128	CC[C@H](C)[C@H](NC(=O)CNC(=O)[C@H](CO)NC(=O)[C@@H](NC(=O)[C@H](CC(C)C)NC(=O)CN)[C@@H](C)CC)C(=O)N[C@@H](CC(C)C)C(=O)NCC(=O)N[C@@H](C)C(=O)NCC(=O)N[C@@H](CCCCN)C(=O)N[C@@H](CCCCN)C(=O)N[C@H](C(=O)N[C@@H](CC(C)C)C(=O)N[C@@H](CS)C(=O)O)C(C)C [OdMa9, GLISGILGAGKKVLC] (H-GLISGILGAGKKVLC-OH; N-terminus and C-terminus assumed)	68.* GLISGILGAGKKVLC	–
16 to 32	> 128	64 to 128	CC[C@H](C)[C@H](NC(=O)CNC(=O)[C@H](CO)NC(=O)[C@@H](NC(=O)[C@H](CC(C)C)NC(=O)CN)[C@@H](C)CC)C(=O)N[C@@H](CC(C)C)C(=O)NCC(=O)N[C@@H](C)C(=O)NCC(=O)N[C@@H](CCCCN)C(=O)N[C@@H](CCCCN)C(=O)N[C@H](C(=O)N[C@@H](CC(C)C)C(=O)N[C@@H](CS)C(=O)NCC(=O)N[C@@H](CC(C)C)C(=O)N[C@@H](CO)C(=O)NCC(=O)N[C@@H](CC(C)C)C(=O)N[C@@H](CS)C(=O)O)C(C)C [OdMa10] (H-GLISGILGAGKKVLCGLSGLC-OH; N-terminus and C-terminus assumed)	1094.* GLISGILGAGKKVLCGLSGLC	–

The next lines start with the compound.

SMILES	MIC (ug/mL) E. coli (E. coli ATCC 25922) [µg/mL]	MIC (ug/mL) S. Enteritidis [1] [µg/mL]	MIC (ug/mL) S. aureus (S. aureus ATCC 29213) [µg/mL]	inhibitory activity (asterisk) [2]	spectrum of antimicrobial activity ([2]; panel of E. coli, Salmonella Enteritidis, S. aureus, up to 128 μg/mL)
CC[C@H](C)[C@H](NC(=O)[C@H](CCCCN)NC(=O)[C@H](CCCCN)NC(=O)CNC(=O)[C@H](C)NC(=O)CNC(=O)[C@H](CC(C)C)NC(=O)[C@H](CC(C)C)NC(=O)CNC(=O)[C@H](CO)NC(=O)[C@H](CC(C)C)NC(=O)[C@H](CC(C)C)NC(=O)CN)C(=O)N[C@H](C(=O)N[C@@H](CS)C(=O)NCC(=O)N[C@@H](CC(C)C)C(=O)N[C@@H](CO)C(=O)NCC(=O)N[C@@H](CCSC)C(=O)N[C@@H](CS)C(=O)O)C(C)C [OdMa3] (H-GLLSGLLGAGKKIVCGLSGMC-OH; N-terminus and C-terminus assumed)	8 to 16	64 (≈ 32.4 µM)	32 (≈ 16.2 µM)	59.* GLLSGLLGAGKKIVCGLSGMC	–
CC[C@H](C)[C@H](NC(=O)[C@H](CCCCN)NC(=O)[C@H](CCCCN)NC(=O)CNC(=O)[C@@H](NC(=O)CNC(=O)[C@H](CC(C)C)NC(=O)[C@@H](NC(=O)CNC(=O)[C@H](CO)NC(=O)[C@H](CC(C)C)NC(=O)[C@H](CC(C)C)NC(=O)CN)C(C)C)C(C)C)C(=O)N[C@H](C(=O)N[C@@H](CS)C(=O)NCC(=O)N[C@@H](CC(C)C)C(=O)N[C@@H](CO)C(=O)NCC(=O)N[C@@H](CC(C)C)C(=O)N[C@@H](CS)C(=O)O)C(C)C [OdMa6] (H-GLLSGVLGVGKKIVCGLSGLC-OH; N-terminus and C-terminus assumed)	8 to 16	128 (≈ 64.9 µM)	16 to 32	1092.* GLLSGVLGVGKKIVCGLSGLC	–
CC(C)C[C@H](NC(=O)CNC(=O)[C@H](CO)NC(=O)[C@H](CC(C)C)NC(=O)CNC(=O)[C@H](CS)NC(=O)[C@H](CC(C)C)NC(=O)[C@@H](NC(=O)[C@H](CCCCN)NC(=O)[C@H](CCCCN)NC(=O)CNC(=O)[C@@H](NC(=O)CNC(=O)[C@H](CC(C)C)NC(=O)[C@@H](NC(=O)CNC(=O)[C@H](CO)NC(=O)[C@H](CC(C)C)NC(=O)[C@H](CC(C)C)NC(=O)CN)C(C)C)C(C)C)C(C)C)C(=O)N[C@@H](CS)C(=O)O [OdMa7] (H-GLLSGVLGVGKKVLCGLSGLC-OH; N-terminus and C-terminus assumed)	8 to 16	128 (≈ 64.9 µM)	16 to 32	1093.* GLLSGVLGVGKKVLCGLSGLC	–
CC[C@H](C)[C@H](NC(=O)CN)C(=O)N[C@@H](CC(C)C)C(=O)N[C@@H](CO)C(=O)NCC(=O)N[C@@H](CC(C)C)C(=O)N[C@@H](CC(C)C)C(=O)NCC(=O)N[C@@H](C)C(=O)NCC(=O)N[C@@H](CCCCN)C(=O)N[C@@H](CCCCN)C(=O)N[C@@H](CC(C)C)C(=O)N[C@@H](C)C(=O)N[C@@H](CS)C(=O)NCC(=O)N[C@@H](CC(C)C)C(=O)N[C@H](C(=O)NCC(=O)N[C@@H](CC(C)C)C(=O)N[C@@H](CS)C(=O)O)[C@@H](C)CC [OdTo1] (H-GILSGLLGAGKKLACGLIGLC-OH; N-terminus and C-terminus assumed)	8 (≈ 4.09 µM)	32 to 64	8 to 16	153.* GILSGLLGAGKKLACGLIGLC	–
CC[C@H](C)[C@H](NC(=O)CN)C(=O)N[C@@H](Cc1ccccc1)C(=O)NCC(=O)NCC(=O)N[C@@H](Cc1c[nH]cn1)C(=O)N[C@@H](CC(C)C)C(=O)N[C@@H](CCCCN)C(=O)N[C@H](C(=O)NCC(=O)N[C@@H](CCCCN)C(=O)N[C@@H](CCCCN)C(=O)N[C@H](C(=O)N[C@@H](C)C(=O)N[C@@H](CS)C(=O)NCC(=O)N[C@@H](CC(C)C)C(=O)N[C@@H](CO)C(=O)NCC(=O)N[C@@H](CC(C)C)C(=O)N[C@@H](CS)C(=O)O)[C@@H](C)CC)C(C)C [OdTo2] (H-GIFGGHLKVGKKIACGLSGLC-OH; N-terminus and C-terminus assumed)	32 (≈ 15.5 µM)	> 128	> 128	139.* GIFGGHLKVGKKIACGLSGLC	–
CC[C@H](C)[C@H](NC(=O)CN)C(=O)N[C@@H](Cc1ccccc1)C(=O)NCC(=O)NCC(=O)N[C@@H](CC(C)C)C(=O)N[C@@H](CC(C)C)C(=O)N[C@@H](CCCCN)C(=O)N[C@@H](CCC(=O)O)C(=O)NCC(=O)N[C@@H](CCCCN)C(=O)N[C@@H](CCCCN)C(=O)N[C@H](C(=O)N[C@@H](C)C(=O)N[C@@H](CS)C(=O)NCC(=O)N[C@@H](CC(C)C)C(=O)N[C@@H](CO)C(=O)NCC(=O)N[C@@H](CC(C)C)C(=O)N[C@@H](CS)C(=O)O)[C@@H](C)CC [OdTo3] (H-GIFGGLLKEGKKIACGLSGLC-OH; N-terminus and C-terminus assumed)	32 (≈ 15.5 µM)	> 128	> 128	141.* GIFGGLLKEGKKIACGLSGLC	–
CC(C)C[C@H](NC(=O)CNC(=O)[C@H](CO)NC(=O)[C@@H](NC(=O)[C@@H](NC(=O)[C@H](CS)NC(=O)[C@H](CC(C)C)NC(=O)[C@@H](NC(=O)[C@H](CCCCN)NC(=O)[C@H](CCCCN)NC(=O)CNC(=O)[C@@H](NC(=O)CNC(=O)[C@H](CC(C)C)NC(=O)[C@@H](NC(=O)[C@H](CCCCN)NC(=O)CNC(=O)[C@H](CC(C)C)NC(=O)[C@H](CC(C)C)NC(=O)CN)C(C)C)C(C)C)C(C)C)C(C)C)C(C)C)C(=O)N[C@@H](CS)C(=O)O [PeNi2] (H-GLLGKVLGVGKKVLCVVSGLC-OH; N-terminus and C-terminus assumed)	4 (≈ 1.96 µM)	16 to 32	4 (≈ 1.96 µM)	395.* GLLGKVLGVGKKVLCVVSGLC	–
CC[C@H](C)[C@H](NC(=O)CN)C(=O)N[C@@H](Cc1ccccc1)C(=O)N[C@@H](CO)C(=O)N[C@@H](CC(C)C)C(=O)N[C@H](C(=O)N[C@@H](CCCCN)C(=O)NCC(=O)N[C@@H](C)C(=O)N[C@@H](C)C(=O)N[C@@H](CCCCN)C(=O)N[C@H](C(=O)N[C@H](C(=O)N[C@@H](C)C(=O)N[C@@H](CCCCN)C(=O)NCC(=O)N[C@@H](CC(C)C)C(=O)NCC(=O)O)C(C)C)C(C)C)[C@@H](C)CC [PeNi3, GIFSLIKGAAKVVAKGLG] (H-GIFSLIKGAAKVVAKGLG-OH; N-terminus and C-terminus assumed)	16 to 32	64 to 128	64 to 128	1096.* GIFSLIKGAAKVVAKGLG	–
